How the values were obtained:
PC-3 cells = experiment: MTT assay, PC-3 cells; type: cell-based, human; settings: Homo sapiens, PC-3; prostate cancer cells; 48 h of treatment; mean ± SD
Procedure: (§1) The human prostate cancer cell lines PC-3, DU145, 22Rv1 and LNCaP, as well as human prostate non-cancer cell line PNT2 were purchased from ATCC (Manassas, VA, USA). HEK 293T (human embryonic kidney cells) and MRC-9 (human fibroblast cells) cell lines were purchased from ECACC (Salisbury, UK). […] Authentication of all cell lines used was recently performed by a commercial service (Multiplexion GmbH, Heidelberg, Germany).
(§2) Cells were cultured as monolayers at 37 °C in a humidified atmosphere with 5% (v/v) CO2 in the correspondent culture medium: 10% FBS/RPMI medium (RPMI medium supplemented with Glutamax^TM-I (gibco® Life technologies^TM, Paisley, UK) containing 10% fetal bovine serum (FBS, gibco® Life technologies^TM) and 1% penicillin/streptomycin (Invitrogen)) for PNT2, LNCaP, 22Rv1, PC-3 and DU145 and cells; 10% FBS/DMEM medium (DMEM medium supplemented with Glutamax^TM-I (gibco® Life technologies^TM) containing 10% FBS and 1% penicillin/streptomycin (gibco® Life technologies^TM)) for MRC-9 and HEK 293 cells. Cells were continuously kept in culture for a maximum of 3 months, and were regularly checked for stable phenotype and mycoplasma infection.
(§3) Effect of the drugs on cell viability in terms of metabolic activity was assessed by MTT assay, as previously reported. Cells were pre-incubated overnight in 96-well plates (6 × 10^3 cells/well in 100 μL/well) in the correspondent culture media. Then, the medium was replaced with fresh 10% FBS/RPMI medium containing the investigated compounds (100 μL/well), and cells were incubated for 48 h, unless otherwise stated. Next, 10 μL/well of (3-(4,5-dimethylthiazol-2-yl)-2,5-diphenyltetrazolium bromide) reagent (MTT, 5 mg/mL) was added. After 2–4 h of incubation, the media was aspirated and the plates were dried. Then, 50 μL/well of DMSO was added to each well and the cell viability was measured using an Infinite F200PRO reader (TECAN, Männedorf, Switzerland). Results were calculated using the GraphPad Prism software v.9.1.1 (GraphPad Software, San Diego, CA, USA) and are represented as IC50 of the compounds calculated using the cells treated with the solvent alone as a control.

22Rv1 cells [1] = experiment: MTT assay, 22Rv1 cells; type: cell-based, human; settings: Homo sapiens, 22Rv1; prostate cancer cells; 48 h of treatment; mean ± SD
Procedure: as §1, §2, §3

DU145 cells = experiment: MTT assay, DU145 cells; type: cell-based, human; settings: Homo sapiens, DU-145; prostate cancer cells; 48 h of treatment; mean ± SD
Procedure: as §1, §2, §3

LNCaP cells = experiment: MTT assay, LNCaP cells; type: cell-based, human; settings: Homo sapiens, LNCaP; prostate cancer cells; 48 h of treatment; mean ± SD
Procedure: as §1, §2, §3

PNT2 cells = experiment: MTT assay, PNT2 cells; type: cell-based, human; settings: Homo sapiens, PNT2; non-cancer cells; 48 h of treatment; mean ± SD
Procedure: as §1, §2, §3

MRC-9 cells = experiment: MTT assay, MRC-9 cells; type: cell-based, human; settings: Homo sapiens, MRC9; non-cancer cells; 48 h of treatment; mean ± SD
Procedure: as §1, §2, §3

HEK-293 cells = experiment: MTT assay, HEK-293 cells; type: cell-based, human; settings: Homo sapiens, HEK293; non-cancer cells; 48 h of treatment; mean ± SD
Procedure: as §1, §2, §3

22Rv1 cells [2] = experiment: Trypan blue-based viability assay; type: cell-based, human; settings: Homo sapiens, 48 h of treatment, mean ± SD, read-out: IC50, trypan blue staining assay
Procedure: The effect of the drugs on cell viability in terms of cellular membrane integrity was evaluated by the trypan blue exclusion assay as described before. In brief, cells (0.2 × 10^6 cells/well) were seeded in 6-well plates and incubated overnight, and the media was replaced with fresh media (1 mL/well) containing drugs at indicated concentrations. After treatment for 48 h, the cells were harvested by trypsinization, stained with trypan blue and the viability was measured using an automatic Beckman Coulter Vi-CELL (Beckman Coulter, Krefeld, Germany). Trypan blue-positive cells were assumed to have damaged cellular membrane (i.e., dead), whereas trypan blue-negative cells were considered to have an intact cellular membrane (i.e., alive).

22Rv1 cells [3] = experiment: Cell cycle progression, flow cytometry with PI staining; type: cell-based, human; settings: treated at IC50 (MTT assay) for 48 h
Procedure: (§4) The effects on cell cycle progression and DNA fragmentation were analyzed by flow cytometry using PI staining, as described before. Cells (2 × 10^5 cells/well) were pre-incubated overnight in 6-well plates and then treated with the investigated drugs in fresh culture media (2 mL/well) for 48 h. Cells were harvested by trypsinization, fixed in 70% EtOH, stained with PI solution and analyzed by FACS Calibur (BD Bioscience, San Jose, CA, USA). The results were quantified using BD Bioscience Cell Quest Pro v.5.2.1. software (BD Bioscience). The cells appearing as a sub-G1 population (containing fragmented DNA) were considered to be apoptotic.

22Rv1 cells [4] = experiment: DNA fragmentation (apoptosis, sub-G1), flow cytometry with PI staining; type: cell-based, human; settings: treated at IC50 (MTT assay) for 48 h, mean ± SD
Procedure: as §4

[5] = tested on: prostate cancer cell lines (PC-3, 22Rv1, DU145 and LNCaP); experiment: MTT assay, mean over four prostate cancer cell lines; type: cell-based; settings: Homo sapiens; mean of MTT IC50 in PC-3, 22Rv1, DU145 and LNCaP; from Table S1 values; read-out: mean IC50 in cancer cells
Procedure: as §3, with “Next, SAR analysis was performed to identify the structural elements that are beneficial for anticancer activity of the fascaplysin-related molecules. Considering the complex and heterogeneous nature of tumors even within the same patient, we used calculated mean IC50 values of each drug in all prostate cancer cells for further analysis (Figure 2A). To identify the drug candidates with the highest therapeutic potential, the selectivity index (SI) was calculated as mean IC50 in non-cancer cells versus mean IC50 in cancer cells (Figure 2B), or as a mean IC50 in non-cancer (MRC-9 and HEK293) cells versus mean IC50 in prostate cells (cancer PC-3, 22Rv1, DU145, LNCaP and non-cancer PNT2 cells) (Figure 2C). Finally, to estimate the effects on cellular metabolism, we compared the activity evaluated by using trypan blue assay versus MTT assay (Figure 2D). Effect” for “Effect”, “2-4” for “2–4”, “F200PRO” left out

[6] = tested on: non-cancer cell lines versus cancer cell lines; experiment: Selectivity index from MTT IC50s; type: cell-based, human; settings: MTT; for Selectivity index, IC50 (non-prostate) / IC50 (prostate): mean IC50 MRC-9 and HEK-293 versus mean IC50 prostate cancer cell lines plus PNT2; for Selectivity index, IC50 (non-cancer) / IC50 (cancer): mean IC50 non-cancer cell lines versus mean IC50 cancer cell lines
Procedure: as §3, with “Next, SAR analysis was performed to identify the structural elements that are beneficial for anticancer activity of the fascaplysin-related molecules. Considering the complex and heterogeneous nature of tumors even within the same patient, we used calculated mean IC50 values of each drug in all prostate cancer cells for further analysis (Figure 2A). To identify the drug candidates with the highest therapeutic potential, the selectivity index (SI) was calculated as mean IC50 in non-cancer cells versus mean IC50 in cancer cells (Figure 2B), or as a mean IC50 in non-cancer (MRC-9 and HEK293) cells versus mean IC50 in prostate cells (cancer PC-3, 22Rv1, DU145, LNCaP and non-cancer PNT2 cells) (Figure 2C). Finally, to estimate the effects on cellular metabolism, we compared the activity evaluated by using trypan blue assay versus MTT assay (Figure 2D). Effect” for “Effect”, “2-4” for “2–4”, “F200PRO” left out

[7] = tested on: double-stranded calf thymus DNA; experiment: Thiazole orange displacement (DNA intercalation) assay; type: binding; settings: 1 µM calf thymus DNA base pairs, 2 µM thiazole orange; 7 min at room temperature; mean ± SD
Procedure: DNA intercalation activity of the compounds was calculated as an ability to displace thiazole orange (TO) from the double-stranded DNA. For this experiment, a mixture (100 µL) containing 1 µM of double-stranded calf thymus DNA (recalculated as a concentration of base pairs) and 2 µM of thiazole orange (TO) solved in water was prepared. Then, the investigated compounds were added up to final concentrations of 0.39–25 µM; DMSO concentration in the samples was <0.02%. Propidium iodide (PI, positive control) was added up to final concentrations of 0.039–2.5 uM. After 7 min of incubation at room temperature, TO fluorescence was monitored using a multimodal plate reader TECAN Spark (Tecan Group Ltd., Männedorf Switzerland) at the excitation λ = 480 nm; fluorescence was recorded at λ = 530 nm. The bandwidth was 10 nm. The concentration of the drug that caused a decrease in TO fluorescence by 50% (EC50) was determined by approximating the experimental data using a non-linear regression algorithm and calculated using the GraphPad Prism software v.9.1.1 (GraphPad Software, San Diego, CA, USA).

| Compound | IC50 (PC-3 cells) | IC50 (22Rv1 cells [1]) | IC50 (DU145 cells) | IC50 (LNCaP cells) | IC50 (PNT2 cells) | IC50 (MRC-9 cells) | IC50 (HEK-293 cells) | IC50 (22Rv1 cells [2]) | Cell cycle arrest (at IC50) (22Rv1 cells [3]) | % of sub-G1 apoptotic cells (at IC50) (22Rv1 cells [4]) | IC50 [5] | Selectivity index, IC50 (non-prostate) / IC50 (prostate) [6] | Selectivity index, IC50 (non-cancer) / IC50 (cancer) [6] | EC50 [7] |
| --- | --- | --- | --- | --- | --- | --- | --- | --- | --- | --- | --- | --- | --- | --- |
| O=C1c2cc(Br)ccc2-[n+]2ccc3c([nH]c4ccc(Cl)cc43)c21.[Cl-] [Compound 12, 12,13-dihydro-2-bromo-9-chloro-13-oxopyrido[1,2-a:3,4-b’]diindol-5-ium chloride] | 13200 ± 2870 nM | 2890 ± 890 nM | 2080 ± 580 nM | 2700 ± 173 nM | 3330 ± 806 nM | 36300 ± 9510 nM | 750 ± 65 nM | 1640 ± 850 nM | No | 6.95±0.901% | 5230 nM | 3.82 | 2.58 | – |
| O=C1c2cc(Br)ccc2-[n+]2ccc3c([nH]c4c(Cl)cc(Cl)cc43)c21.[Cl-] [Compound 14, 12,13-dihydro-2-bromo-9,11-dichloro-13-oxopyrido[1,2-a:3,4-b’]diindol-5-ium chloride] | 5290 ± 132 nM | 4150 ± 340 nM | 6910 ± 650 nM | 6510 ± 2320 nM | 2750 ± 1740 nM | > 50000 nM | 2610 ± 429 nM | 7430 ± 850 nM | No | 23.6±1.2% | 5720 nM | 5.14 | 3.23 | – |
| CCc1c[n+]2c(c3[nH]c4ccccc4c13)C(=O)c1ccccc1-2.[Cl-] [Compound 17, 12,13-dihydro-7-ethyl-13-oxopyrido[1,2-a:3,4-b’]diindol-5-ium chloride] | 564 ± 98 nM | 271 ± 46 nM | 2370 ± 450 nM | 611 ± 47 nM | 490 ± 90 nM | 1450 ± 645 nM | 700 ± 211 nM | 375 ± 90 nM | – | 13.4±0.92% | 950 nM | 1.25 | 0.92 | 1030 ± 30 nM |
| Cc1cc2c([nH]c3ccccc32)c2[n+]1-c1ccccc1C2=O.[Cl-] [Compound 19, 12,13-dihydro-6-methyl-13-oxopyrido[1,2-a:3,4-b’]diindol-5-ium chloride] | 2670 ± 140 nM | 1590 ± 514 nM | 2240 ± 890 nM | 2240 ± 810 nM | 3250 ± 795 nM | 2980 ± 930 nM | 1820 ± 387 nM | 2030 ± 609 nM | – | 14.2±0.567% | 2180 nM | 1.00 | 1.23 | 380 ± 20 nM |
| O=C1c2ccccc2-[n+]2c(-c3ccccc3)cc3c([nH]c4ccccc43)c21.[Cl-] [Compound 20, 12,13-dihydro-6-phenyl-13-oxopyrido[1,2-a:3,4-b’]diindol-5-ium chloride] | 429 ± 100 nM | 156 ± 32 nM | 444 ± 95 nM | 283 ± 35 nM | 440 ± 75 nM | 860 ± 111 nM | 412 ± 66 nM | 207 ± 74 nM | No | 16.4±2.47% | 330 nM | 1.82 | 1.74 | – |
